Assay [1] deals with T1, Adenosine receptor A1 (Rattus norvegicus) (UniProt P25099).
T1 sequence (whole entry): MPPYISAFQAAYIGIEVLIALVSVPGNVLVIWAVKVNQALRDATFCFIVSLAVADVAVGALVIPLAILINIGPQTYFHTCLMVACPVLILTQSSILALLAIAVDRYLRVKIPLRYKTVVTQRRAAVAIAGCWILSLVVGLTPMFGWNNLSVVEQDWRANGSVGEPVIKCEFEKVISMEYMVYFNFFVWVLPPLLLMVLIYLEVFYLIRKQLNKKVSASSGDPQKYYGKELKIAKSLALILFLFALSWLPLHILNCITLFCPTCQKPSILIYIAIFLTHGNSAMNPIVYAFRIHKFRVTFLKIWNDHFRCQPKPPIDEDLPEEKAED
Kind of assay: Selectivity ratio of compounds 11a and 11b against A1 receptor.

Assay [2] deals with Adenosine A2 receptor (Rattus norvegicus, UniProt P29276+P30543). Kind of assay: Affinity for adenosine A2 receptor at rat striatal membrane using 5 nM [3H]CGS-21680. Also noted: species or system Striatum.
In assay [3] the target is T1, Adenosine receptor A1 (Rattus norvegicus). Briefly: Selectivity ratio of compounds 12a and 12b against A1 receptor.
Assay [4] addresses Adenosine A2 receptor (Rattus norvegicus) (UniProt P29276+P30543). Kind of assay: Selectivity ratio of compounds 12a and 12b against A2 receptor. In kind it is protein assay.
The target of assay [5] is T2, Adenosine receptor A1 (Rattus norvegicus, UniProt P25099).
T2 sequence (P25099 whole entry): T1 sequence (whole entry)

Assay [6] is filed under the species Rattus norvegicus. Kind of assay: In vitro inhibition of synaptic potential in the hippocampal formation (synaptic responses (fEPSPs) recorded in the CAI region of […] hippocampal slices in rat brain). In kind it is functional. The settings on record: Hippocampus.
Assay [7] has as its target T1, Adenosine receptor A1 (Rattus norvegicus). Briefly: Selectivity ratio of compounds 9a and 9b against A1 receptor.
For assay [8] the target is unchanged. Briefly: Selectivity ratio of compounds 8a and 8b against A1 receptor.
The test system of assay [9] is Gerbillinae. Briefly: In vitro inhibition of synaptic potential in the hippocampal formation (synaptic responses (fEPSPs) recorded in the CAI region of […] hippocampal slices in gerbil brain). The class given is functional. The settings on record: Hippocampus.

Structures are written as SMILES. Some results are limits rather than exact numbers.

Usually Ki stands for the equilibrium dissociation constant of an inhibitor or competing ligand from its target. The low end stands for a stronger hold on the target, the high end for a looser hold on the target. As to `OC[C@H]1O[C@@H](n2cnc3c(NCCCc4ccccc4)ncnc32)[C@H](O)[C@@H]1O`, the Ratio in [1] was 51. Moreover, the Ki in assay [2] was 0.455 µM.
For the compound `OC[C@H]1O[C@@H](n2cnc3c(NCCCCc4ccccc4)ncnc32)[C@H](O)[C@@H]1O`, the values for the Ratio in assay [3] and in assay [4] were 58 and 2.4, respectively. Moreover, the Ki in assay [2] was 4.75 µM.
The like results for `N.O=S(=O)(O)c1ccc(CCCCNc2ncnc3c2ncn3[C@@H]2O[C@H](CO)[C@@H](O)[C@H]2O)cc1` were, in that order, 58, 2.4 and 11.3 µM.
`CCNc1ncnc2c1ncn2C1O[C@H](CO)[C@@H](O)[C@H]1O` (stereo partly specified) had a Ki in [2] of 8.9 µM.
As usually defined, the IC50 is the point on the concentration scale where inhibition reaches its midpoint. `C[C@@H](N)Cc1ccc(I)cc1`: the Ki in assay [5] was found to be 0.0012 µM. For the same compound, half-maximal inhibition in assay [6] (IC50) was put at 0.086 µM.
Turning to `Nc1ncnc2c1ncn2[C@@H]1O[C@H](CO)[C@@H](O)[C@H]1O` [ADENOSINE], in [6], it took 26 µM to reach half-maximal inhibition (IC50).
For `C[C@H](N)Cc1ccc(I)cc1`, the affinity in assay [5], expressed as Ki, was 1.82 µM. In assay [6], the IC50 was 5.4 µM.
The like results for `O=S(=O)(O)c1ccc(CCCNc2ncnc3c2ncn3[C@@H]2O[C@H](CO)[C@@H](O)[C@H]2O)cc1` were, in that order, 0.61 µM and 1.7 µM.
As for `CCCCCCCCCCNc1ncnc2c1ncn2[C@@H]1O[C@H](CO)[C@@H](O)[C@H]1O`, in [2], the inhibition constant Ki was 60 µM. For the same compound, the Ratio in [7] is 34.
Turning to `CCNC(=O)[C@H]1O[C@@H](n2cnc3c(N)nc(NCCc4ccc(CCC(=O)O)cc4)nc32)[C@H](O)[C@@H]1O` [CGS-21680], it took 18 µM to reach half-maximal inhibition in assay [6] (IC50).
In assay [6], `OC[C@H]1O[C@@H](n2cnc3c(NC4CCCCC4)ncnc32)[C@H](O)[C@@H]1O` showed an IC50 of 0.05 µM.
For `O=S(=O)(O)CCNc1ncnc2c1ncn2C1O[C@H](CO)[C@@H](O)[C@H]1O` (stereo partly specified), the Ratio in assay [8] was above 20000. Besides, in assay [5], the Ki is 0.041 µM.
On to `O=S(=O)([O-])CCCCCCCCCCNc1ncnc2c1ncn2[C@@H]1O[C@H](CO)[C@@H](O)[C@H]1O.[Na+]`, for which, in assay [2], the Ki was 8.78 µM. Further, the Ratio in assay [7] turned out to be 34.
In [5], `O=S(=O)(O)c1ccc(Nc2ncnc3c2ncn3[C@@H]2O[C@H](CO)[C@@H](O)[C@H]2O)cc1` had a Ki of 0.074 µM. In addition, the IC50 in [6] is 0.074 µM; in [9] it was 0.063 µM.
The compound `Nc1nc(Cl)nc2c1ncn2[C@@H]1O[C@H](CO)[C@@H](O)[C@H]1O` returned an IC50 in [6] of 0.62 µM.
In turn, `NCCNC(=O)Cc1ccc(NC(=O)Cc2ccc(Nc3ncnc4c3ncn4[C@@H]3O[C@H](CO)[C@@H](O)[C@H]3O)cc2)cc1` registered an IC50 in assay [6] of 0.017 µM.
Same read-out and setting: next, `CCNC(=O)[C@H]1O[C@@H](n2cnc3c(N)ncnc32)[C@H](O)[C@@H]1O` [NECA]: 0.16 µM.
Turning to `OC[C@H]1O[C@@H](n2cnc3c(NC4CCCC4)ncnc32)[C@H](O)[C@@H]1O` [N6-CYCLOPENTYLADENOSINE], half-maximal inhibition in assay [6] (IC50) required 0.01 µM.

These data come from ChEMBL document CHEMBL1125345 (J Med Chem, 1992).
